The source of these data is ChEMBL document CHEMBL5465560, “Selectivity Literature for EUbOPEN Chemogenomic Library” (2024).

Assay [1] deals with T1, Non-receptor tyrosine-protein kinase TNK1 (Homo sapiens) (UniProt Q13470).
T1 sequence (whole entry): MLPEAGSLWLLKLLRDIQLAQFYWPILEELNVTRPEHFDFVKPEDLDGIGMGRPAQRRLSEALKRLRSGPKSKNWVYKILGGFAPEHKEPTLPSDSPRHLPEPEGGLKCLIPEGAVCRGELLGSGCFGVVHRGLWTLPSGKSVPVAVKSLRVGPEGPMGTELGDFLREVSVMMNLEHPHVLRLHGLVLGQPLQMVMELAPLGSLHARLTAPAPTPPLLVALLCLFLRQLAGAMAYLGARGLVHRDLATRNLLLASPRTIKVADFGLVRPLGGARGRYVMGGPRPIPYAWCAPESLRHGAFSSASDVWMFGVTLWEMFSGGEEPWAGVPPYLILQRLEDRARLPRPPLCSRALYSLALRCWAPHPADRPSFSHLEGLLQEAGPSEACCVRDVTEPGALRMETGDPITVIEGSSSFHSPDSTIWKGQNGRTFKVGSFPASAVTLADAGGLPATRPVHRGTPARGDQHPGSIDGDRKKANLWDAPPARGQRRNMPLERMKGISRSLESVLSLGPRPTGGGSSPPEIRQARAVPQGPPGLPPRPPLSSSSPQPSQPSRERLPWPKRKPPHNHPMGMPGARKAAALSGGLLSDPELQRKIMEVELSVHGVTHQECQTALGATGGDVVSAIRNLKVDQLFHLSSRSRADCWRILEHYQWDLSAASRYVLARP
Put plainly: Selectivity interaction (Kinase panel (Carna Biosciences)) EUB0001542aTs TNK1. The conditions noted are these: at 1 µM.

Assay [2] concerns the target T2, Activin receptor type-1B (Homo sapiens) (UniProt P36896).
T2 sequence (whole entry): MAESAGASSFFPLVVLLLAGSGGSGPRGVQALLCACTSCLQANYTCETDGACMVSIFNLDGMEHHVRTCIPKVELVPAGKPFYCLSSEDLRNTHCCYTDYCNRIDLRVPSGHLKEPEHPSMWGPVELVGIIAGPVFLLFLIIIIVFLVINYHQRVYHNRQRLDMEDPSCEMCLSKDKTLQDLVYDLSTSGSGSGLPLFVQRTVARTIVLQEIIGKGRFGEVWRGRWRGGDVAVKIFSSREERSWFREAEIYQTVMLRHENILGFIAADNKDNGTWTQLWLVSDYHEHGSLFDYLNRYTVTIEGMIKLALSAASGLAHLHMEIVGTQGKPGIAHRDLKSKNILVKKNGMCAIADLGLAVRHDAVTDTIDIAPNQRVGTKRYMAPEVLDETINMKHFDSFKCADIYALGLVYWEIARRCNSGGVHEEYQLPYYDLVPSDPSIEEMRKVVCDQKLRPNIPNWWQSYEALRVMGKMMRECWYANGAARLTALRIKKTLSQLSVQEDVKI
Put plainly: Selectivity interaction (KinomeScan (DiscoverX)) EUB0000666a ACVR1B. The settings on record: at 10 µM.

The target of assay [3] is T3, Muscle, skeletal receptor tyrosine-protein kinase (Homo sapiens) (UniProt O15146).
T3 sequence (whole entry): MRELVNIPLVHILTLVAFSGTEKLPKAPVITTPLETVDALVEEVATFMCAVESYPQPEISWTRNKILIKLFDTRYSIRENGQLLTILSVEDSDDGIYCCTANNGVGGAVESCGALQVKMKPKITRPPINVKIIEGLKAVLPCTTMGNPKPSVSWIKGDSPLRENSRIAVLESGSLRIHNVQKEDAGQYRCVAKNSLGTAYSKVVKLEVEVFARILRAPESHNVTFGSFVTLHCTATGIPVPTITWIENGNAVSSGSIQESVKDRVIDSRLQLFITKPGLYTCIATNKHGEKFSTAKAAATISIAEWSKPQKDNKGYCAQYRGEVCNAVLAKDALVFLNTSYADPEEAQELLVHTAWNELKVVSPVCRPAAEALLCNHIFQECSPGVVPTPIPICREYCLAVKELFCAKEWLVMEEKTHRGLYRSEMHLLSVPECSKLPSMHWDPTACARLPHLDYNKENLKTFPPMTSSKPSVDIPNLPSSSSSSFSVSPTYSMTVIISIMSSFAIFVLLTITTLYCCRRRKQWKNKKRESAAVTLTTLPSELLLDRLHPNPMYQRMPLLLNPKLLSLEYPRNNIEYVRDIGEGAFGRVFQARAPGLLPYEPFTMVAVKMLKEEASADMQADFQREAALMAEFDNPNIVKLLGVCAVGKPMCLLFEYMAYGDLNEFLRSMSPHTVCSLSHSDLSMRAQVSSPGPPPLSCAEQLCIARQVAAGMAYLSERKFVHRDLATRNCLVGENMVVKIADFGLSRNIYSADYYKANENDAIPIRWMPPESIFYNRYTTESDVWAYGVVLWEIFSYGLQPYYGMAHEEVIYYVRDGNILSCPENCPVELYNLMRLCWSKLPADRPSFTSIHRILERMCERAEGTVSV
Put plainly: Selectivity interaction (ProQinase) EUB0000171b MUSK.

Another assay deals with D(2) dopamine receptor (Homo sapiens, UniProt P14416). Briefly: Selectivity interaction (Panel of kinases, GPCRs, ion channels and transporters (enzymatic assay)) EUB0000223bCl DRD2.
Chain of D(2) dopamine receptor (P14416 whole entry): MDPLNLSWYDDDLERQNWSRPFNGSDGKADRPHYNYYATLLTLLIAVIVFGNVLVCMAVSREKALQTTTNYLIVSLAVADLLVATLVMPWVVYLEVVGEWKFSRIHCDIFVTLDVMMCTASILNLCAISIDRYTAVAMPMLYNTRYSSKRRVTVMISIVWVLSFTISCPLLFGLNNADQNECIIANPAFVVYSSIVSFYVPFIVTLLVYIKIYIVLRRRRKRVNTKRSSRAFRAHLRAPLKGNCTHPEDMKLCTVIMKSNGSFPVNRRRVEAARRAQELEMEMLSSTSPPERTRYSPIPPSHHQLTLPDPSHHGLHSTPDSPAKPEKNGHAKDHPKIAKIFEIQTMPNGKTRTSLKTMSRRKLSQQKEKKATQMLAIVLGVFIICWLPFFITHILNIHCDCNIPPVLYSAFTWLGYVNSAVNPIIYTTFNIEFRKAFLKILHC

For the molecule `Cn1cc(Nc2nccc(N3CC4CCC(C3)N4C(=O)[C@@H]3CC3(F)F)n2)cn1`, in assay [1], the % of inhibition was 94%.

With `O=C(NOC[C@H](O)CO)c1ccc(F)c(F)c1Nc1ccc(I)cc1F`, the % of control in assay [2] is 100%.

On to `C=CC(=O)Nc1cccc(C(=O)Nc2ccc(Nc3cc(-c4[nH]c(SC)nc4C)ccn3)cc2)c1`, for which the % of control in assay [3] (at 1 µM) came out at 74%; in assay [3] (at 5 µM), 31%.

As to `COc1cc(C(=O)N2CC[C@@H](O)[C@@H](N)C2)cc2nc(-c3cc4ccccc4n3CC3CC3)n(C)c12`, the pXC50 at D(2) dopamine receptor is less than 4 M.
